# Results published in patent US12545637B2, “Extrahepatic targeted cationic lipid compound with high efficiency and low toxicity and its composition” (BEIJING YOUCARE KECHUANG PHARMACEUTICAL TECHNOLOGY CO., LTD., priority 2023, dated 2026).
# How the values were obtained:
# [1] = Particle size and polydispersity index (PDI) of lipid nanoparticles by dynamic light scattering; assay type: physicochemical
# Procedure: The particle size and polydispersity index (PDI) were determined by dynamic light scattering using Malvern laser particle size analyzer.
# 10 μL of the liposome solution was weighed, diluted to 1 mL with RNase-free deionized water, and added to the sample pool. Each sample was measured in triplicate. The measurement conditions were: […] scattering angle, and 25° C.
# female BALB/C mice [2] = experiment: In vivo imaging in mice of Fluc-mRNA LNP formulations (mRNA expression and duration)
# How it was run: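 Female BALB/C mice (4-6 weeks, 17-19 g) received LNP carrying […] Fluc-mRNA intramuscularly. At 6h, 24 h, 48h and 7d, fluorescent imaging substrate was given intraperitoneally and after 5 minutes average radiance, as a measure of expressed protein, was imaged on an IVIS Spectrum system.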
# female BALB/C mice [3] = experiment: Distribution of liposomes in mice (protein expression in liver, spleen, lung, heart and kidney); assay type: in vivo; conditions: mouse, in vivo
# Procedure: The LNP formulation (prepared according to Example 4) containing […] Fluc-mRNA was injected intramuscularly into female BALB/C mice aged 4-6 weeks and weighed 17-19 g, and the mice were intraperitoneally injected with fluorescent imaging substrate at specific time points after administration (6h, 24 h, 48h and 7d), where the mice were allowed to free move for 5 minutes, and then the average radiation intensity (corresponding to fluorescence expression intensity) of the protein expression of the mRNA carried by the LNP in the mice was detected by the IVIS Spectrum small animal in vivo imaging system.
# Current mRNA vaccines usually express proteins in muscle.
# [4] = Detection of encapsulation efficiency, drug loading concentration and total RNA concentration (RiboGreen); assay type: physicochemical
# How it was run: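 Samples were diluted in 1×TE to about […], combined with TE and 0.1% Triton X-100 buffers, and held at 37 °C for 10 minutes before dye addition.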
# 293T cells = experiment: Fluorescent detection of Fluc-mRNA (cell transfection efficiency of LNP formulations); assay type: cell-based
# [5] = LNP formulation prepared from the cationic lipid
smiles,measurement,setting,value
CCCCCCCCC(CCCCCCCC)C(=O)OCCCCCCN(CCO)CCN(CCO)CCCCCCOC(=O)C(CCCCCCCC)CCCCCCCC [YK-402],PDI,"[1]; LNP formulation of the cationic lipid, 25° C.",17.1%
same,Particle size,"[1]; LNP formulation of the cationic lipid/DSPC/cholesterol/DMG-PEG2000 49:10:39.5:1.5, 25° C.",155 nm
same,"average radiation intensity, times that of ALC-0315",female BALB/C mice [2]; 6 h,1.75
same,"average radiation intensity, times that of HHMA",female BALB/C mice [2]; 6 h,2.22
same,"average radiation intensity, times that of SM-102",female BALB/C mice [2]; 6 h,2.13
same,"average radiation intensity, times that of compound 21",female BALB/C mice [2]; 6 h,2.45
same,"average radiation intensity, times that of compound 23",female BALB/C mice [2]; 6 h,2.53
same,"expression amount in mice, times that of YK-415",female BALB/C mice [2]; 6 h,12.48
same,"expression amount in mice, times that of YK-417",female BALB/C mice [2]; 6 h,24.31
same,"mRNA expression in mice, times that of YK-411",female BALB/C mice [2]; 6 h,251.30
same,"average radiation intensity, times that of ALC-0315",female BALB/C mice [2]; 24 h,4.21
same,"average radiation intensity, times that of HHMA",female BALB/C mice [2]; 24 h,6.65
same,"average radiation intensity, times that of SM-102",female BALB/C mice [2]; 24 h,6.47
same,"average radiation intensity, times that of compound 21",female BALB/C mice [2]; 24 h,7.19
same,"average radiation intensity, times that of compound 23",female BALB/C mice [2]; 24 h,7.91
same,"expression amount in mice, times that of YK-415",female BALB/C mice [2]; 24 h,12.38
same,"expression amount in mice, times that of YK-417",female BALB/C mice [2]; 24 h,39.95
same,"mRNA expression in mice, times that of YK-411",female BALB/C mice [2]; 24 h,394.86
same,"average radiation intensity, times that of ALC-0315",female BALB/C mice [2]; 48 h,8.62
same,"average radiation intensity, times that of HHMA",female BALB/C mice [2]; 48 h,10.37
same,"average radiation intensity, times that of SM-102",female BALB/C mice [2]; 48 h,10.52
same,"average radiation intensity, times that of compound 21",female BALB/C mice [2]; 48 h,10.96
same,"average radiation intensity, times that of compound 23",female BALB/C mice [2]; 48 h,10.50
same,"expression amount in mice, times that of YK-415",female BALB/C mice [2]; 48 h,21.90
same,"expression amount in mice, times that of YK-417",female BALB/C mice [2]; 48 h,49.08
same,"mRNA expression in mice, times that of YK-411",female BALB/C mice [2]; 48 h,354.61
same,"average radiation intensity, times that of ALC-0315",female BALB/C mice [2]; 7 d,1.42
same,"average radiation intensity, times that of HHMA",female BALB/C mice [2]; 7 d,1.67
same,"average radiation intensity, times that of SM-102",female BALB/C mice [2]; 7 d,1.48
same,"average radiation intensity, times that of compound 21",female BALB/C mice [2]; 7 d,1.56
same,"average radiation intensity, times that of compound 23",female BALB/C mice [2]; 7 d,1.63
same,"expression amount in mice, times that of YK-415",female BALB/C mice [2]; 7 d,2.46
same,"expression amount in mice, times that of YK-417",female BALB/C mice [2]; 7 d,4.35
same,"mRNA expression in mice, times that of YK-411",female BALB/C mice [2]; 7 d,20.71
same,"average radiation intensity, 6 h","female BALB/C mice [2]; Fluc-mRNA LNP intramuscular, 6 h after administration",1470100
same,"average radiation intensity, 24 h","female BALB/C mice [2]; Fluc-mRNA LNP intramuscular, 24 h after administration",798408
same,"average radiation intensity, 48 h","female BALB/C mice [2]; Fluc-mRNA LNP intramuscular, 48 h after administration",345740
same,"average radiation intensity, 7 d","female BALB/C mice [2]; Fluc-mRNA LNP intramuscular, 7 d after administration",9940
same,protein expression in the liver,"female BALB/C mice [3]; female, BALB/C, 6 h",reduced compared with SM-102
same,protein expression in the liver,female BALB/C mice [3],had protein expression in the liver
same,protein expression in the spleen,female BALB/C mice [3],had protein expression in the spleen
same,Drug loading concentration,[4]; [5],37.67 µg/mL
same,Encapsulation efficiency,[4]; [5],91.0%
same,Total RNA concentration,[4]; [5],40.09 µg/mL
same,encapsulation efficiency higher than ALC-0315,[4]; difference vs ALC-0315,27.7%
same,encapsulation efficiency higher than HIMA,[4]; difference vs HIMA (HHMA),30.8%
same,encapsulation efficiency higher than SM-102,[4]; difference vs SM-102,28.1%
same,encapsulation efficiency higher than YK-009,[4]; difference vs YK-009,27.6%
same,encapsulation efficiency higher than compound 21,[4]; difference vs compound 21,33.0%
same,encapsulation efficiency higher than compound 23,[4]; difference vs compound 23,34.8%
same,"drug loading concentration, times that of ALC-0315",[4]; ratio vs ALC-0315,1.40
same,"total RNA concentration, times that of ALC-0315",[4]; ratio vs ALC-0315,1.06
same,"drug loading concentration, times that of HIMA",[4]; ratio vs HIMA (HHMA),1.15
same,"total RNA concentration, times that of HIMA",[4]; ratio vs HIMA (HHMA),1.10
same,"drug loading concentration, times that of SM-102",[4]; ratio vs SM-102,1.42
same,"total RNA concentration, times that of SM-102",[4]; ratio vs SM-102,1.11
same,"drug loading concentration, times that of YK-009",[4]; ratio vs YK-009,1.37
same,"total RNA concentration, times that of YK-009",[4]; ratio vs YK-009,1.04
same,"drug loading concentration, times that of compound 21",[4]; ratio vs compound 21,1.71
same,"total RNA concentration, times that of compound 21",[4]; ratio vs compound 21,1.39
same,"drug loading concentration, times that of compound 23",[4]; ratio vs compound 23,1.88
same,"total RNA concentration, times that of compound 23",[4]; ratio vs compound 23,1.29
same,"RLU value, times that of ALC-0315",293T cells; ratio vs ALC-0315,2.30
same,"RLU value, times that of HHMA",293T cells; ratio vs HHMA,2.43
same,"RLU value, times that of Lipofectamine 3000",293T cells; ratio vs Lipofectamine 3000,4.20
same,"RLU value, times that of YK-009",293T cells; ratio vs YK-009,0.98
same,"RLU value, times that of YK-405",293T cells; ratio vs YK-405,1.58
same,"RLU value, times that of YK-406",293T cells; ratio vs YK-406,64.46
same,"RLU value, times that of YK-408",293T cells; ratio vs YK-408,3.42
same,"RLU value, times that of YK-409",293T cells; ratio vs YK-409,7.53
same,"RLU value, times that of YK-410",293T cells; ratio vs YK-410,12.37
same,"cell transfection efficiency, times that of YK-412",293T cells; ratio vs YK-412,1.50
same,"cell transfection efficiency, times that of YK-413",293T cells; ratio vs YK-413,3.66
same,"cell transfection efficiency, times that of YK-414",293T cells; ratio vs YK-414,11.36
same,"cell transfection efficiency, times that of YK-416",293T cells; ratio vs YK-416,1.27
same,"cell transfection efficiency, times that of YK-419",293T cells; ratio vs YK-419,1.59
same,"cell transfection efficiency, times that of YK-420",293T cells; ratio vs YK-420,1.25
same,"cell transfection efficiency, times that of YK-421",293T cells; ratio vs YK-421,10.81
